# Entries after “also recorded” stand apart in the source; their conditions may differ.
# What was measured:
# STZ induced diabetic rat = assay: Lenticular degeneration in STZ induced type I diabetic model; format: in vivo, Sprague Dawley rats; settings: 100 mg/kg for 2 months, FIG. 41
# Method: The animal model was developed by injecting STZ to Sprague Dawley rats and kept for 10 weeks to develop diabetic complications. Initially animals were in hyperglycemic and chronically, developed several feature of diabetes and diabetic complications, which simulates human diabetes and complications. These features were treated as mentioned below. Forty male Sprague Dawley rats aged 6-8 weeks, body weight range between 150-190 g was used for this study. The animals were divided into two groups. First group (n=10) was treated as a normal control injected with normal saline and the second group (n=30) was treated with STZ (50 mg/kg, i.v.), (Sigma. USA). Body weight was recorded every week and blood glucose every month using glucometer (Contour TS, Bayer Healthcare Ltd.). Every week eyes were examined for cataractous changes. After 10 weeks of diabetes induction animals were grouped based on blood glucose levels and the severity of cataract. The first group served as normal control (n=10). The diabetic animals with cataract were divided into two groups, second group served as disease control (n=9) and third group was treated with compound of formula (A) (n=10) at 100 mg/kg dose for 2 months. At the last day of experiment animals were kept for 12 hours fasting, next day blood was collected, plasma separated and used for biochemical analysis. […] Data Analysis: The values are expressed as Mean±SE. […]
# NAFLD/NASH mice = assay: Supranutritional diet induced NAFLD/NASH (and DIO/NAFLD) models; format: in vivo, C57BL/6 mice
# Method: A rodent obese and NAFLD model was developed by feeding supranutritional diet, which simulates several features of human obesity and NAFLD. These features were treated as mentioned below. […] C57BL/6 male mice aged at 6-8 weeks, body weight ranges between 16-22 g were used for this study. Animals were divided into two groups. First group (n=8, where n refers to number of animals) was treated as a normal control fed with chow feed (Nutri Lab® Rodent, Tetragon Chemie Pvt. Ltd., Bangalore) and the second group (n=20) was treated with 60 Kcal % high fat diet (HFD) (Research Diets, New Brunswick, N.J., Cat# D12492 with blue dye) for 90 days. Animals were selected based on their body weight. The Animals fed with normal chow diet (n=8) served as normal control (Group I) and animals fed with HFD were divided into two groups as DIO/NAFLD control (Group II) (n=10), and Group III (n=9) treated with compound formula (A) at 100 mg/kg for 28 days. During this period, animal body weight and feed intake was recorded daily.
# A rodent NAFLD/NASH model was developed by feeding supranutritional diet which simulates several features of human NAFLD/NASH. These features were treated as mentioned below. Fifty C57BL/6 male mice aged 6-8 weeks, and body weight ranges between 16-36 g were used for this study. Animals were divided into two groups, first group (n=10) treated as a normal control, was fed with chow feed (Nutri Lab® Rodent, Tetragon Chemie Pvt. Ltd., Bangalore) and the second group (n=40) fed with 60 Kcal % HFD (Research Diets, New Brunswick, N.J., Cat# D12492 with blue dye) and 40% high fructose liquid (HFL) for 60 days. After 45 days, two animals from disease induction and normal control groups were sacrificed; liver histopathology examination was carried out to confirm the induction of NAFLD/NASH. Animals fed with normal chow diet served as a normal control (Group I) and animals fed HFD and HFL were divided into three groups (n=6-8) as NAFLD/NASH control (Group II), Group III and Group IV were dosed with compound of formula (A) and Metformin at 100 and 350 mg/kg p.o respectively for 28 days. On 28th day, animals were kept 12 hours fasting and 29th day blood was collected, plasma separated and used for biochemical and compound concentration analysis. The animals were then sacrificed. Liver was collected and weighed. Liver tissues were used for compound concentration analysis, triglycerides estimation and histopathology examination. Gross pathology of liver was also observed. Experiment-3: Effect of Compound of formula (A) in NAFLD/NASH mice
# The experiment-2 protocol was followed. There compound of formula (A) was compared with other antidiabetic compounds (Figures-8-13).
# To develop NAFLD/NASH model, the same protocol was followed as mentioned in Experiment-2. At the end of induction period the animals were grouped as follows. Animals fed with normal chow diet (n=9) served as Normal control (Group 1) and animals fed HFD and HFL were divided into four groups (n=9-12) as NAFLD/NASH control (Group II), Groups III, IV, and V were treated with compound of formula (A) at 10, 30 and 100 mg/kg p.o. respectively for 28 days. After 28 days of treatment animals were kept for 12 hours fasting and blood was collected for biochemical estimations. Following blood collection, animals were sacrificed, liver was collected and weighed. Liver tissues were used for compound concentration analysis, TG estimation and histopathological examination. Gross pathology of liver was also observed. […]
smiles,measurement,setting,value
"COC(=O)[C@@H](N)Cc1ccc(Oc2ccc(CC3SC(=O)NC3=O)cc2)cc1 (stereo partly drawn) [Compound of formula (A), Methyl(2S)-2-amino-3-(4-{4-[(2,4-dioxo-1,3-thiazolidin-5-yl)methyl]phenoxy}phenyl)propanoate]",lenticular degeneration,STZ induced diabetic rat,significant improvement in lenticular degeneration
same,liver histopathology (Hepatic steatosis),"NAFLD/NASH mice; (A) up to 100 mg/kg, disodium salt of (C) 30 mg/kg p.o., 28 days, FIGS. 6, 7, 12, 13, 19, 20, 21, 24, 25, 30, 31 & 32",reduction; also recorded: improvement in liver histopathology
same,plasma AST,"NAFLD/NASH mice; vs untreated disease control, FIG. 17",reduction
same,body weight,"NAFLD/NASH mice; vs untreated disease control, FIGS. 1, 2, 8, 16 & 23",reduction in body weight
same,glucose (fasted),"NAFLD/NASH mice; vs untreated disease control, FIGS. 5 & 9",reduction
same,plasma ALT,"NAFLD/NASH mice; vs untreated disease control, FIGS. 10 & 18",reduction

# — patent US20140187594A1, “DIPHENYL ETHER COMPOUNDS FOR THE TREATMENT OF LIVER, LUNG DISORDERS, DIABETIC COMPLICATIONS AND CARDIOVASCULAR DISEASES” (ORCHID CHEMICALS AND PHARMACEUTICALS LTD, priority 2010, published 2014)
